Literature values, collected in paper PMC7898808 (Diabetes, Obesity & Metabolism, 2020).
Read-outs that look alike come from different tables or passages of the source.

Tests used:
[1] = test system: steady-state DNL; conditions: repeat dosing in NASH subjects
[2] = test system: fructose-stimulated DNL; conditions: single dose of 20 mg, healthy population
[3] = test system: NAFLD patients; conditions: 20 mg for 12 weeks
[4] = test system: hepatic DNL

Row | Compound | decrease of steady-state DNL [1] [%] | reduction of fructose-stimulated DNL [2] [%] | patients achieving relative MRI-PDFF reduction of ≥30% [3] [%] | DNL inhibition ([4]; 50 mg daily dosing for 10 days) [%] | DNL inhibition ([4]; 100 mg daily dosing for 10 days) [%] | DNL inhibition ([4]; 150 mg daily dosing for 10 days) [%]
1 | COc1ccccc1[C@H](Cn1c(=O)n(C(C)(C)C(=O)O)c(=O)c2c(C)c(-c3ncco3)sc21)OC1CCOCC1 [GS-0976] | 22 | 70 | 43 |  |  | 
2 | Cc1nnc(-c2cc(C(=O)N3CCC(c4ccc(C#N)cc4)CC3)c(C)cc2C2CCC2)[nH]1 [TVB-2640] |  |  |  | 23 | 65 | 77
